Measurements: patent US10765690B2, “TLR4 agonists and compositions thereof and their use in the treatment of cancer” (GlaxoSmithKline Intellectual Property Development Limited, priority 2015, dated 2020)

Experiments:
B16-F10 melanoma cells [1] = assay: B16-F10 murine melanoma model, survival; type: in vivo, BDF1 mice; details: cyclophosphamide alone 3 mg IP on day 5
Protocol: The efficacy of combination therapy with a chemotherapeutic agent and an AGP was also tested in a murine melanoma model using a non-immunogenic tumor called B16-F10. In these experiments, BDF1 mice were seeded with B16-F10 melanoma cells (1.5×10^3 IV) on day 0. At various time thereafter, cancer-bearing mice were treated with cyclophosphamide (aka Cytoxan) alone (3 mg IP), CRX-527-IN (10 ug) alone or a combination of the two agents.

[2] = system: L1210 murine leukemia cells; assay: L1210 murine leukemia model, survival of tumor-bearing mice; type: in vivo, BDF1 mice; details: mitomycin C 40 ug IP day 6 followed by CRX-527-AF 100 ug IP day 7; compared to either component alone; through day 54
Protocol: To investigate whether a combination treatment consisting of the chemotherapeutic mitomycin C and the AGP CRX-527 would prolong survival of cancer-bearing mice better than either treatment alone, BDF1 mice (10 per group) that had been seeded with L1210 murine leukemia cells (10^4 tumor cells via the intraperitoneal (IP) route) on day 0 were treated with, 1) nothing (untreated control), 2) an intraperitoneal injection of mitomycin C (40 ug) on day 6, 3) an IP injection of CRX-527-AF (100 ug CRX-527 in Aqueous Formulation (AF), which is 0.02% dipalmitoyl phosphatidyl choline in water) on day 7, or 4) an IP injection of mitomycin C on day 6 followed by an IP injection of CRX-527-AF on day 7. Survival curves through day 54 are presented for each group in FIG. 1.

[3] = system: Mouse Ovarian Tumor (MOT) cells; assay: Mouse Ovarian Tumor (MOT) model, survival, wild-type TLR4 mice; type: in vivo, C3H/FeJ, C3H/HeOuJ, C3H/HeN mice; details: for protection (survival): 1 and 10 ug doses IP day 7 after mitomycin C day 6
Protocol: To determine whether the timing of administration of the chemotherapeutic and TLR4 ligand is important for the anti-cancer response, C3H/FeJ mice (10 per group) seeded with Mouse Ovarian Tumor (MOT) cells (10^4 tumor cells via the IP route) on day 0 were treated with, 1) nothing (untreated control), 2) mitomycin C (40 ug) on day 6, 3) CRX-527-SE (10 ug in a Stable Emulsion formulation containing 2% squalene oil-in-water) on day 4 followed by mitomycin C on day 6, 4) CRX-527-SE on day 5 followed by mitomycin C on day 6, 5) both CRX-527-SE and mitomycin C on day 6, 6) mitomycin C on day 6 followed by CRX-527-SE on day 7, 7) mitomycin C on day 6 followed by CRX-527-SE on day 10, and 8) mitomycin C on day 6 followed by CRX-527-SE on day 11. The dose/route for mitomycin C and CRX-527-SE administration was always 40 ug IP and 10 ug IP, respectively.
The effect of formulation for the anti-cancer activity observed with CRX-527 was evaluated in the MOT tumor model. In the experiment shown in FIG. 5, C3H/HeN mice (wild-type TLR4, 10 per group) were seeded with MOT tumor (10^4 tumor cells IP) on day 0. Mitomycin C (40 ug IP) was administered on day 6, and 1 or 10 ug CRX-527 formulated in AF (Aqueous Formulation=0.02% dipalmitoyl phosphatidyl choline in water), IN (Intranasal Formulation=2% glycerol in water) or SE (Stable Emulsion=2% squalene oil-in-water) was administered via the IP route on day 7. […] The results of this experiment indicate that the potency of CRX-527 in this model can be enhanced through formulation.
Group size was 10 in this experiment. […]

[4] = system: Mouse Ovarian Tumor (MOT) cells; assay: MOT model in TLR4 mutant (non-responder) mice, survival; type: in vivo; details: MOT-bearing C3H/HeJ TLR4 mutant mice
B16-F10 melanoma cells [5] = assay: B16-F10 melanoma lung metastasis, lung tumor burden; type: in vivo, BDF1 mice; details: CRX-527-SE 10 ug IV and cyclophosphamide 4 mg IP on day 1
Protocol: In further experimentation, B16-F10 melanoma cells transfected with green fluorescent protein were used to quantify metastasis of the tumor to the lungs of mice. Because green fluorescent protein allows quantification of the amount of tumor in the lungs of B16-F10-bearing mice, it was possible to evaluate the efficacy of various treatment regimens using lung tumor burden as the read-out. BDF1 mice were seeded with B16-F10 melanoma cells (1.5×10^3 IV) on day 0. […] On day 26, the mice were sacrificed and their lungs were collected. The lungs from each mouse were photographed and then homogenized so that the luciferase activity could be quantified to determine how much B16-F10 tumor was present. […] This observation was confirmed when the lungs were homogenized and evaluated for luciferase activity.

4T1 tumor cells = assay: 4T1 murine breast cancer model, survival after removal of primary tumor; type: in vivo, BALB/c Mice; details: cyclophosphamide 3 mg IP and CRX-527 various doses IV on day 15; vs vehicle or cyclophosphamide alone
Protocol: The benefit of combining chemotherapeutic agents with TLR4 ligands such as AGPs was also confirmed in the 4T1 murine breast cancer model. For the experiments conducted using this metastatic cancer model, 4T1 tumor cells (7×10^3 in 50 uL) were injected into the lower mammary gland of each mouse on day 0. The primary tumors were surgically removed on day 14, the mice (10 per group) were treated on day 15 with vehicles, cyclophosphamide (3 mg IP) or cyclophosphamide (3 mg IP) and CRX-527 (various doses IV).

[6] = system: CT-26 colorectal tumor cells; assay: CT-26 syngeneic colon carcinoma model, escalating i.p. doses (Example 9); type: in vivo, Balb/c mice; details: CRX-527 4, 20, 100 ug per mouse i.p. biweekly
Source text: The CT26 mouse colon carcinoma (CT26.WT; ATCC #CRL-2638) cell line was obtained from ATCC. It is an N-nitroso-N-methylurethane-(NNMU) induced, undifferentiated colon carcinoma cell line known in the art. For example, it is described in: Wang M, et al. Active immunotherapy of cancer with a nonreplicating recombinant fowlpox virus encoding a model tumor-associated antigen. J. Immunol. 154: 4685-4692, 1995 (PubMed: 7722321), which is incorporated by reference in its entirety herein. For preparation of tumor cells, A frozen (−140° C.) vial of CT-26 (mouse colon carcinoma cells), from ATCC (cat # CRL-2638, lot #59227052) are thawed and cultured in basic RPMI (with 10% FBS) media over the following week.
CT-26 cells (passage 12) are harvested from the flask in complete medium. Cells are centrifuged and resuspended in RPMI (without FBS), this step is repeated 3 times. Cell density and viability are checked via trypan blue exclusion. Cells are then diluted to desired density (5×10^5 cells per mL) and kept on ice.
Escalating doses of CRX 527 are evaluated for their efficacy in reducing tumor growth. Animals are weighed and innoculated on the right hind quarter with 0.5×10^5 CT26 tumor cells per mouse on Day 0. A total of 130 mice are inoculated with tumor cells—assuming 30% failure rate (either too big or too small at time of start of study), the goal is to have n=10 for each group. After tumor cell innoculation, tumor growth and total body weight are measured 3 times a week for the duration of the study. Randomization occurs on day 10 or 11 when the average tumor volume is approximately 100 mm^3. Begining on the day of randomization, animals are dosed with CRX 527 or vehicle i.p. biweekly, for a total of 6 doses. Mice remain on study until tumors reach >2000 cu mm for two consecutive measurements, they are removed from study for other reasons (i.e. weight loss >20%, ulceration on tumor, etc.) or until the end of the study. After euthanization the tumors may be removed and subject to dissociation for flow analysis and/or FFPE for IHC analysis.
The above protocol was used to generate the results in FIG. 17 at the dosages indicated. In almost every case, Balb/c mice that were inoculated with 0.5×10^5 CT-26 colorectal tumor cells on the right hind quarter developed tumors that, when treated i.p. with vehicle (2% glycerol) only, and progressed as expected. […] FIG. 17.

[7] = system: Mouse Ovarian Tumor (MOT) cells; assay: Mouse Ovarian Tumor (MOT) model, survival, wild-type TLR4 mice; type: in vivo, C3H/FeJ, C3H/HeOuJ, C3H/HeN mice

With `O.O=P1(N(CCCl)CCCl)NCCCO1` (stereo not shown) [cyclophosphamide, 2-[bis(2-chloroethyl)amino]tetrahydro-2H-1,3,2-oxazaphosphorine 2-oxide monohydrate] the survival (B16-F10 melanoma cells [1]) was “modest prolongation”.
With `CCCCCCCCCCC[C@H](CC(=O)N[C@H]1[C@H](OC[C@H](NC(=O)C[C@@H](CCCCCCCCCCC)OC(=O)CCCCCCCCC)C(=O)O)O[C@H](CO)[C@@H](OP(=O)(O)O)[C@@H]1OC(=O)C[C@@H](CCCCCCCCCCC)OC(=O)CCCCCCCCC)OC(=O)CCCCCCCCC` [CRX-527] the survival [2] was “significantly prolonged survival”, the “dose required to induce a high level of protection” value ([3]; AF formulation (0.02% dipalmitoyl phosphatidyl choline in water), IP day 7 after mitomycin C day 6) was 10 µg and the survival times ([3]; C3H/FeJ mice, CRX-527-SE 10 ug IP at the same time as or up to 5 days after mitomycin C 40 ug IP (day 6), vs untreated, mitomycin alone or CRX527-SE followed by mitomycin C) was “significantly prolonged survival times”. The survival ([3]; C3H/HeN mice, CRX-527 1 or 10 ug IP day 7, one day after mitomycin C 40 ug IP) was “prolonged survival”, the “potency compared to the AF formulation” value ([3]; IN formulation (2% glycerol in water), IP day 7 after mitomycin C day 6) was “enhanced potency” and the “protection (survival)” value ([3]; IN formulation) was “highly effective”. For the same compound, the “potency compared to the AF formulation” value ([3]; SE formulation (2% squalene oil-in-water), IP day 7 after mitomycin C day 6) was “enhanced potency”, the “protection (survival)” value ([3]; SE formulation) was “highly effective” and the survival ([3]; both mitomycin C and CRX-527, compared to either component alone) was “significantly prolonged survival”. For the same compound, the survival [4] was “did not promote survival”, the “luciferase activity in homogenized lungs” value (B16-F10 melanoma cells [5]; day 26, vs vehicle or either agent alone) was “significantly less luciferase activity” and the “lung tumor burden by visual examination” value (B16-F10 melanoma cells [5]; lungs collected day 26) was “lower lung tumor burden than any other group”. For the same compound, the survival times (4T1 tumor cells) was “longer survival times”, the survivability [6] was “Dose dependence was also seen” and the tumor growth ([6]; 6 doses, compared to vehicle (2% glycerol)) was “inhibited tumor growth in a dose dependent manner”. For the same compound, the survival ([7]; C3H/HeOuJ wild-type mice, alone or in combination with mitomycin C) was “promoted survival” and the “resistance to re-challenge with the same tumor” value ([7]; mice cured of MOT tumor by combination treatment with mitomycin C and CRX-527, compared to naive control mice) was “resistant to re-challenge”.
For `CO[C@@]12[C@H](COC(N)=O)C3=C(C(=O)C(C)=C(N)C3=O)N1C[C@@H]1N[C@@H]12` [mitomycin C, reference compound], the survival ([3]; C3H/HeN mice, mitomycin C alone 40 ug IP day 6, compared to no treatment control) was “small increase in survival”.
